Among the data in the NIST ThermoML archive (doi:10.1016/j.fluid.2012.06.017) are Critical pressure and Critical temperature values, retold here.

± gives the expanded uncertainty stated by the source.

The conditions of the series: Liquid; Pulse-heating method.
In the case of `CC(C)O[Si](OC(C)C)(OC(C)C)OC(C)C` [isopropyl silicate ((C3H7O)4Si)], the Critical pressure is recorded as 1310 ± 80 kPa and the Critical temperature was 587 ± 12 K.

For the compound `CC(C)(C)[O-].CC(C)(C)[O-].CC(C)(C)[O-].CC(C)(C)[O-].[Ti+4]` [titanium(IV) 2-methylpropan-2-olate], the Critical pressure is reported as 1070 ± 60 kPa and the Critical temperature was 657 ± 14 K.

Take `CC(C)[O-].CC(C)[O-].CC(C)[O-].CC(C)[O-].[Ti+4]` [titanium(IV) 2-propanolate]: the Critical pressure is listed as 1140 ± 60 kPa and the Critical temperature worked out at 641 ± 12 K.
